≈ marks a conversion by molar mass, not a printed value. Structures can show the parent of a compound that is named as a salt. Where two headings read alike, the source gives them in different places.

Series [1] can be described thus: Solubility in water at ambient temperature (saturated solution, supernatant by quantitative HPLC). Format: physicochemical. The protocol:
One such technique is to prepare a saturated solution of the salt form by shaking a suspension of the salt form in water, until a saturated solution is obtained. The saturated solution is then centrifuged and the concentration of the supernatant is determined by quantitative HPLC analysis. A suitable HPLC method is described in Example 1.

Series [2] is described as follows: Ames Test dose/response studies. To be noted: impurity (2) present in compound (1) and its various salt forms. Format: cell-based. An excerpt: [drawing 10] is produced in pharmaceutically unacceptable levels using these previous methods. Based on dose/response studies using an Ames Test, the mutagenic impurity (2) is shown to elicit a positive response when present at level about 1 ppm (parts per million) in 6-[(4,5-Dihydro-1H-imidazol-2-yl)amino-]-7-methyl-1H-benzimidazole-4-carbonitrile (1) and its various salt forms. Low levels of this phenazine impurity can be detected by those methods well known in the art such as HPLC with fluorescence detection. Suitable examples of such assays are described in Examples 1, 2, and 3 herein. A suitable preparation of labeled ^15N4-2,3,7-Triamino-4,6-dimethyl-1,9-phenazinedicarbonitrile is described in Example 4 herein. A suitable preparation of non-labeled 2,3,7-Triamino-4,6-dimethyl-1,9-phenazinedicarbonitrile is described in Example 19 herein. III. Methods of Making Intermediate of Formula (II)

Take `Cc1c(NC2=NCCN2)cc(C#N)c2nc[nH]c12` [Sulfate Salt Form, 6-[(4,5-Dihydro-1H-imidazol-2-yl)amino-]-7-methyl-1H-benzimidazole-4-carbonitrile, reference compound]: the solubility in water result in series [1] (water, ambient temperature) is reported as “about 4 mg/mL”.
In general, solubility refers to the dissolved amount per volume that the medium holds. Compound `Cc1c(N=C2NCCN2)cc(C#N)c2[nH]cnc12` [Free Base Form, 6-[(4,5-Dihydro-1H-imidazol-2-yl)amino-]-7-methyl-1H-benzimidazole-4-carbonitrile] gave a solubility in series [1] (water, thermodynamic from solid) of roughly 400 µg/mL (≈ 1660 µM).
With `Cc1c(N)cc(C#N)c2nc3c(C#N)c(N)c(N)c(C)c3nc12` [compound 2, 2,3,7-triamino-4,6-dimethyl-1,9-phenazinedicarbonitrile], in series [2], the “level of the impurity at which a positive response is elicited in the Ames Test” value is given as “about 1 ppm”.
As for `CC(=O)O.Cc1c(NC2=NCCN2)cc(C#N)c2nc[nH]c12` [Acetate Salt Form, 6-[(4,5-Dihydro-1H-imidazol-2-yl)amino-]-7-methyl-1H-benzimidazole-4-carbonitrile, Acetic Acid Salt (1:1)], in series [1], the solubility in water entry is “about 135 mg/mL”.

The values are drawn from patent publication US7304084B2, “6-[(4,5-Dihydro-1H-imidazol-2-yl)amino]-7-methyl-1H-benzimidazole-4-carbonitrile and its preferred salt” (The Board of Regents of the University of Nebraska, priority 2003, dated 2007).
